# In article PMC4601023, “Novel anticancer agent, SQAP, binds to focal adhesion kinase and modulates its activity” (Scientific Reports, 2015):
# Columns and labels:
# [1] = test system: TSP-1 expression in endothelial cells; parameters: method as in PMID 14739779; conditions: cited from earlier work
# [2] = test system: breast CSCs; parameters: method as in PMID 25187396; conditions: in combination with radiotherapy; cited from earlier work
# [3] = biological target: T1, SCP-2 (400–547) (Homo sapiens, UniProt P22307); experiment: SPR analysis, immobilized His-tagged SCP-2 (400-547); type: binding
# T1 construct: DNA encoding SCP-2 (400–547) was amplified; made in house; host or cells: E. coli Rosetta 2 (DE3) pLysS
# T1 sequence (P22307 400-547): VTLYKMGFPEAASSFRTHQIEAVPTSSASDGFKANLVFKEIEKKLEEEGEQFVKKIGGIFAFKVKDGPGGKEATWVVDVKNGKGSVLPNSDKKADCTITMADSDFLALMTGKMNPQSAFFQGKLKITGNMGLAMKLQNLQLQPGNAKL
# Description: (§1) SPR was utilized as an independent confirmation of the kinetic parameters between SQAP and the putative binding proteins. […] The recombinant proteins were then expressed in Escherichia coli and purified to homogeneity. In addition, full length, His-tagged ADRM1 and GST-tagged HR23B (GST-HR23B) were also used. The proteins were first immobilized on a CM5 sensor chip of the SPR biosensor (Biacore 3000). For GST-HR23B analysis, a GST protein was additionally immobilized and used as a control in order to eliminate possible nonspecific binding of SQAP. SQAP samples at different concentrations were then injected over the proteins immobilized on the sensor chip. As a negative control we used sulfoquynovosylpropanediol (SQP), which lacks the fatty acid moiety of SQAP (Fig. 1). […]
# (§2) The binding kinetics of SCP-2, MFE-2, ADRM1, HR23B and FAK with SQAP and SQP were analyzed on a Biacore 3000 instrument (GE Healthcare, Little Chalfont, UK). […] The buffer of purified peptides was exchanged to HBS-P (150 mM NaCl, 0.005% Surfactant P20, 10 mM HEPES-NaOH pH 7.4) using a PD 10 column (GE Healthcare, Little Chalfont, UK) and the concentrations were quantified using DC protein assay kit (Bio-Rad Laboratories, Hercules, CA, USA). […] Kinetic parameters were determined by analyzing the data using BIAevaluation 4.1 software (GE Healthcare, Little Chalfont, UK).
# [4] = biological target: T2, MFE-2 (598–736) (Homo sapiens, UniProt P51659); experiment: SPR analysis, immobilized His-tagged MFE-2 (598-736); type: binding
# T2 construct: For MFE-2 (598–736) DNA was amplified; made in house; host or cells: E. coli Rosetta 2 (DE3) pLysS
# T2 sequence (P51659 598-736): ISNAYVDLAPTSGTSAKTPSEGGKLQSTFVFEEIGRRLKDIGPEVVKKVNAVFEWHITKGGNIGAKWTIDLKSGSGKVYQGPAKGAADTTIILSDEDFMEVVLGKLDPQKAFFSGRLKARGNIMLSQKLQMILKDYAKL
# Description: as §1, §2
# [5] = biological target: T3, ADRM1 (Homo sapiens, UniProt Q16186); experiment: SPR analysis, immobilized full length His-ADRM1; type: binding
# T3 construct: ADRM1 and HR23B human full length proteins were purchased; His-tag; purchased ATgen (Gyeonggi-do, Korea)
# T3 sequence (Q16186 whole entry): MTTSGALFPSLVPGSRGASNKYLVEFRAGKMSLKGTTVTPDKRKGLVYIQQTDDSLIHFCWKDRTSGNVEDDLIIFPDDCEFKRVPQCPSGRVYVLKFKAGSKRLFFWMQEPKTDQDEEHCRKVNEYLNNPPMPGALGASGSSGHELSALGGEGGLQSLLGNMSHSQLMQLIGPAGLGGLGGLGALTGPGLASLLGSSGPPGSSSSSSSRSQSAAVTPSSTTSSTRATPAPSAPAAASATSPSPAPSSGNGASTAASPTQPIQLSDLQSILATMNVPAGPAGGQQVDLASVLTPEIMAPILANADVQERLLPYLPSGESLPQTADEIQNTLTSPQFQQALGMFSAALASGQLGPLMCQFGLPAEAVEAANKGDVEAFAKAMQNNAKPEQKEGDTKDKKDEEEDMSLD
# Description: as §1, §2
# [6] = biological target: T4, HR23B (Homo sapiens, UniProt P54727); experiment: SPR analysis, immobilized GST-HR23B (GST control subtracted); type: binding; conditions: no kinetic analysis
# T4 construct: ADRM1 and HR23B human full length proteins were purchased; purchased Abnova (Taipei, Taiwan)
# T4 sequence (P54727 whole entry): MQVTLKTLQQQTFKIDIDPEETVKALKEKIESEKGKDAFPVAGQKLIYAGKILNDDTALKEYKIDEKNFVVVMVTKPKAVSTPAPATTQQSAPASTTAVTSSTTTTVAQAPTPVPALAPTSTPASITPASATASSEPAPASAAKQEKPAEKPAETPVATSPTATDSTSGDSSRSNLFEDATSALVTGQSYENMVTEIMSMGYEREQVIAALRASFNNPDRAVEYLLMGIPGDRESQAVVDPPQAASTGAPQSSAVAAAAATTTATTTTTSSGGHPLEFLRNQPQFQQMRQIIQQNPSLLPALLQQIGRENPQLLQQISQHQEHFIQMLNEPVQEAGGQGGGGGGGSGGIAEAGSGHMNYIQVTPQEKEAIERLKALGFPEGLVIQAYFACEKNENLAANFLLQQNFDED
# Description: as §1, §2
# [7] = biological target: T5, FAK (910–1052) (Homo sapiens, UniProt Q05397); experiment: SPR analysis, immobilized His-tagged FAK (910-1052); type: binding
# T5 construct: For FAK (910–1052) DNA was amplified; made in house; host or cells: E. coli BL21 (DE3)
# T5 sequence (Q05397 910-1052): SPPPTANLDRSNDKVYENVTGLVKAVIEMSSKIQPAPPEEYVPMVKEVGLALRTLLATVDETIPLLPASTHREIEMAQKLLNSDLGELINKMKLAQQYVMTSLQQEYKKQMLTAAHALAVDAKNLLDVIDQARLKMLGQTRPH
# Description: as §1, §2
# [8] = test system: FAK phosphorylation (Y397, Y925) in A549 cells; experiment: FAK phosphorylation level in A549, Western blotting; type: cell-based, human; conditions: A549, fibronectin 10 μg/mL, 1 h treatment
# Description: A549 cells were incubated in a serum-free medium for 48 h in 60 mm dishes (IWAKI, Tokyo, Japan). Then 10 μM SQAP, SQMG or SQP was added and incubated for 30 min followed by addition of fibronectin 10 μg/mL (Sigma, St. Louis, MI, USA) and incubation for another 30 min. FAK phosphorylation level was analyzed by Western blotting as described in the next section.
# (§3) Cells were harvested and solubilized in RIPA buffer (20 mM Tris-HCl, pH 7.5, 1% Sodium deoxycholate, 150 mM NaCl, 5 mM EDTA, 1% Triton X-100, 0.1% SDS, 0.1%, 1 mM PMSF, 1 mM vanadate and 1 μg/mL leupeptin). Protein quantification was determined using the DC protein assay kit (Bio-Rad, Hercules, CA, USA). A total of 15 μg of each protein sample were separated by SDS–PAGE gels and blotted onto polyvinylidene difluoride membranes (Merck, Kenilworth, NJ, US). After blocking for 1 h with Blocking-One (Nacalai Tesque, Kyoto, Japan), proteins were detected by incubating the membranes with the primary antibody at 4 °C overnight (anti-Y397 2:2000, anti-Y925 5:2000 and anti-FAK 0.5:2000) followed by incubation with horseradish peroxidase-conjugated secondary antibodies at room temperature for 1 h (anti-mouse 0.5:2000 and anti-rabbit 0.4:2000).
# [9] = test system: FAK phosphorylation (Y397, Y925) in HUVEC cells; experiment: FAK phosphorylation level in HUVEC, Western blotting; type: cell-based, human; conditions: VEGF 50 ng/mL, 1 h
# Description: HUVEC cells were incubated for 20 h in serum-free medium in 60 mm dishes. SQAP, SQMG or SQP was added and incubated for 30 min followed by addition of 50 ng/mL VEGF (RD systems, Minneapolis, MN. USA) and incubation for another 30 min. FAK phosphorylation level was analyzed by Western blotting as described in the next section.
# as §3
# [10] = test system: Akt phosphorylation at S473 in HUVEC; experiment: Akt phosphorylation in HUVEC, Western blotting; type: cell-based, human; conditions: treated for 21 h, 10 µM
# Description: Furthermore, we looked at FAK signaling pathway to validate our results. Paxillin binds to FAK 919–938 residues which is a sequence contained within the region where SQAP is predicted to bind. Binding between paxillin and FAK results in paxillin phosphorylation at Y118[35][36]. Thus, we examined paxillin phosphorylation. […] Additionally, we studied Akt phosphorylation at S473 on account of FAK is a known factor in control of Akt activity. We observed that Akt phosphorylation was diminished when treated with SQAP or SQMG for 21 h (see Supplementary Fig. S3).
# as §3, with “0.4:2000). […]” for “0.4:2000).”
# [11] = test system: lung and colon adenocarcinomas; parameters: method as in PMID 9020475, PMID 21115885; conditions: transplanted in nude mice, in combination with X-irradiation; cited from earlier work
# [12] = biological target: VEGF (Homo sapiens, UniProt P15692); conditions: cited from earlier work
# Sequence of VEGF (P15692 whole entry, species assumed): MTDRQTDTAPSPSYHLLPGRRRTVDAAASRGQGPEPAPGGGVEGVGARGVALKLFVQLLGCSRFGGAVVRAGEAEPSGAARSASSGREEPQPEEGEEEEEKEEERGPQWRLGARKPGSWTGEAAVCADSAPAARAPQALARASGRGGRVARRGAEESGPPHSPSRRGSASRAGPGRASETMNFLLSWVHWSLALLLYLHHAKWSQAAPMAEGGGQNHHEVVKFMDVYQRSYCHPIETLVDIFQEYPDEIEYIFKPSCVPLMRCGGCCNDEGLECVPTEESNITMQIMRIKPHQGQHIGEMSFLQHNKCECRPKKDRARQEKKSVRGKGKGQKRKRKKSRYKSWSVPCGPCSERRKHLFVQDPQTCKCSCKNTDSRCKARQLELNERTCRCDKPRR
# [13] = test system: TSP-1 gene; parameters: method as in PMID 22587436; conditions: diverse cell lines including A549 and HUVEC; cited from earlier work
# [14] = test system: Tie2 gene; parameters: method as in PMID 18380795; conditions: cited from earlier work
compound,measurement,setting,value
O=c1cc(N2CCOCC2)oc2c(-c3ccccc3)cccc12 [LY 294002],TSP-1 expression levels,[1],upregulated
CS(=O)(=O)c1cccc(CNc2nc(Nc3ccc4c(c3)CCC(=O)N4)ncc2C(F)(F)F)c1 [PF573228],formation of clumps of breast CSCs,[2],block the formation of clumps
"O=S(=O)(O)C[C@H]1O[C@H](OCCCO)[C@H](O)[C@@H](O)[C@@H]1O [SQP, sulfoquynovosylpropanediol, reference compound]",binding to SCP-2 (SPR response),[3],neither bound
same,binding to MFE-2 (SPR response),[4],neither bound
same,binding to ADRM1 (SPR response),[5],neither bound
same,binding to HR23B (SPR response),[6],neither bound
same,binding to FAK (SPR response),[7],neither bound
same,phosphorylation of FAK at Y397 and Y925,[8],failed to inhibit
sulfoquinovosyl monoacylglyceride [SQMG],phosphorylation level of FAK at Y397 and at Y925 after VEGF stimulation,[9],can inhibit
same,Akt phosphorylation at S473,[10],diminished
same,tumor growth,[11],significantly inhibited
same,binding to VEGF,[12],bind to VEGF
same,TSP-1 gene expression,[13],upregulation
same,Tie2 gene expression,[14],downregulation
